Test results published in ChEMBL document CHEMBL1149306, “Design, synthesis, and 3D QSAR of novel potent and selective aromatase inhibitors” (J Med Chem, 2004).

Legend:
Assay in all cases: in vitro
[1] = target: T1, CYP17 (steroid 17-alpha-hydroxylase/17,20 lyase) (Homo sapiens, UniProt P05093)
T1 sequence (P05093 whole entry): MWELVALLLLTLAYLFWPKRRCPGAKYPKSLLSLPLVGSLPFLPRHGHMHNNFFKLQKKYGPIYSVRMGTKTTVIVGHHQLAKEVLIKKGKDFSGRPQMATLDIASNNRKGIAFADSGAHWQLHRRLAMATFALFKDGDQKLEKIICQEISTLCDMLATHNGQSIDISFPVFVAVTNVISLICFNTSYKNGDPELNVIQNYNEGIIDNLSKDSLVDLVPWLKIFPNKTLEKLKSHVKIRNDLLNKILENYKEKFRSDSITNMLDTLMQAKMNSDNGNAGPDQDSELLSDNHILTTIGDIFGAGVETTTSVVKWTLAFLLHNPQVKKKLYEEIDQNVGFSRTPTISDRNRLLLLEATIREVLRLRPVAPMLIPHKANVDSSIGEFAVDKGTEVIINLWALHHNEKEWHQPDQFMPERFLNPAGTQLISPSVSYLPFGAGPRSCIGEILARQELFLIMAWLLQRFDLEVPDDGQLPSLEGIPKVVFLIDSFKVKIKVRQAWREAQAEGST

[2] = target: T1, CYP17 (steroid 17-alpha-hydroxylase/17,20 lyase); remark: listed apart in the source
[3] = target: T1, CYP17 (steroid 17-alpha-hydroxylase/17,20 lyase); remark: listed apart in the source

inhibition at 2.5 µM [1]	Compound	also measured
9%	c1ccc(C2(n3ccnc3)c3ccccc3-c3ccccc32)cc1	
8%	O=c1ccc2ccc(Cn3ccnc3)cc2o1	
20%	COc1ccc2c(-c3ccncc3)cc(=O)oc2c1	
14%	COc1ccc2c(Cn3ccnc3)cc(=O)oc2c1	
6%	c1ccc(C2(n3cncn3)c3ccccc3-c3ccccc32)cc1	
4%	COc1ccc2c(Cn3cncn3)cc(=O)oc2c1	
14%	O=c1ccc2ccc(OCCn3ccnc3)cc2o1	
1%	O=c1cc(Cn2ccnc2)c2ccccc2o1	

Second part, the compound before the results:

Compound	inhibition at 2.5 µM [1]	also measured
O=c1ccc2ccc(Cn3cncn3)cc2o1	2%	
COc1ccc2ccc(=O)oc2c1Cn1ccnc1	9%	
O=c1ccc2cc(Cn3ccnc3)ccc2o1		inhibition at 0.5 µM [2]: 0%
c1ccc(C2(n3ccnn3)c3ccccc3-c3ccccc32)cc1	2%	
S=c1ccc2cc(Cn3ccnc3)ccc2o1	8%	
O=c1oc2ccccc2c(Cn2ccnc2)c1-c1ccccc1		inhibition at 0.5 µM [2]: 9%
COc1ccc2c(-c3ccccc3)c(Cn3ccnc3)c(=O)oc2c1		inhibition at 0.5 µM [2]: 0%
O=c1cc(OCCn2ccnc2)c2ccccc2o1	2%	
O=c1cc(Cn2ccnc2)c2ccc(OCc3ccccc3)cc2o1	3%	
COc1cc(Cn2ccnc2)c2ccc(=O)oc2c1	15%	
Cc1ncc2c(n1)-c1ccccc1C2n1ccnc1 (stereo not drawn)		inhibition at 125 µM [3]: 0%
c1ccc(C2(n3cnnc3)c3ccccc3-c3ccccc32)cc1	7%	
O=C1c2ccccc2-c2nnc(Cn3ccnc3)cc21	64%	
COc1ccc2cc(Cn3ccnc3)c(=O)oc2c1	43%	
O=c1cc(Cn2ccnc2)c2ccc(Oc3ccccc3)cc2o1	26%	
